Data from US20240148745A1, “COMPOUNDS FOR USE IN PROGRESSIVE MULTIPLE SCLEROSIS” (FONDAZIONE CENTRO SAN RAFFAELE, priority 2021, published 2024).

Columns and labels:
rat primary OPC cultures = test: Differentiation of rat primary OPC into MBP+ OLs; type: cell-based; settings: 96 h, 4 days of differentiation, read-out: MBP+ differentiation (MBP+/SOX10+ OLs plus compounds / plus basal medium)
In short: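 Primary rat OPCs were differentiated for 4 days with compounds at […], in triplicate over 3 independent experiments. Cells were immunolabelled for CNPase, MBP and SOX10, and MBP+ oligodendrocytes were counted by imaging. Results are fold increase in MBP+/SOX10+ cells over basal medium; 9-cis-RA ([…]) was the positive control.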

[1] = system: H9-derived human neural stem cells; test: Neurotoxic or regenerative effect screening (CellTiter-Glo); type: cell-based; settings: 10 μM, three independent screenings
Experimental: H9-derived human neural stem cells (H9 hNSCs, Gibco) were cultured according to the manufacturer's instructions. Briefly, H9 hNSCs were expanded and subsequently differentiated in neurobasal medium, 2% B27, 1% Glutamax, and 1% penicillin/streptomycin, supplemented with 10 ng/ml BDNF (Peprotech), and 2 ng/ml recombinant human GDNF (Peprotech). After 7 days, 500 μM of db-cAMP (N6,2′-O-dibutyryladenosine 3′,5′-cyclic monophosphate, Sigma) was added.
The metabolic activity/viability of selected compounds (32 “Front Runners”+24 compounds from the “Short list”) was evaluated by CellTiter-Glo® Luminescent Cell Viability Assay. The primary screen of Front Runner List (32 compounds)+24 compounds from Short List) on H9-derived human neurons was performed at 10 μM concentration. The validation of hits from primary screen on H9-derived human neurons was performed at 10 μM concentration.
32 Front Runners were tested at 10 μM on H9-derived human neuronal cultures and viability was evaluated by CellTiter-Glo® Luminescent Cell Viability Assay.

[2] = system: primary murine spinal cord culture; test: Myelinating cell cultures from primary murine spinal cord; type: cell-based, mouse; settings: 1 μM
Experimental: Single cell suspensions are prepared from spinal cord of mouse embryos (E13) (adapted from Thomson, 2008) and 1.5×10^5 cells/well were plated into 96 well plates. Over time, these cultures mature and form axons, which later myelinate. Using spinal cord tissue facilitates the quantification of mature MBP+ oligodendrocytes and newly formed myelin by in-house high-content imaging system (Operetta High Content Imaging System, Perkin Elmer) with a 20× lens. From each well, 25 fields in a 5×5 matrix were scanned. Thirty-two “Front Runners” compounds were tested in replicates of five at 1 μM/DMSO, while T3, benzotropine and clemastine were used as positive controls, DMSO as negative/solvent control. Two experimental paradigms were applied: “Early treatment”: exposure to experimental agent from DIV7 to DIV14; “Late treatment”: exposure to experimental agent from DIV14-DIV21. On DIV21, cultures were fixed and stained (myelin: MBP, axons: NF200; nuclei: Hoechst). Imaging data were analysed using CellProfiler and in-house generated analysis pipeline.
Thirty-two “Front Runners” compounds were tested in replicates of five at 1 μM/DMSO, while T3, benztropine and clemastine were used as positive controls, DMSO as negative/solvent control. Two experimental paradigms were applied: “Early treatment”: exposure to experimental agent from DIV7 to DIV14; “Late treatment”: exposure to experimental agent from DIV14-DIV21. […] In “Late treatment” paradigm in myelin area evaluation were identified Vanoxerine, Roxadustat, Tamibarotene, Drinabant, Progesterone, Saracatinib. In quantification of myelinated axons were identified Vanoxerine, Drinabant, Roxadustat.

[3] = system: iPSC-derived glutamatergic neurons; test: ROS (tBuOOH)-mediated neuroprotective assay on hNeu; type: cell-based, human
Experimental: Neuroprotective experiments were performed using iPSC-derived glutamatergic neurons from 3 healthy controls cultured for 30-40 DIV. Cells were pre-treated for 24 h with […] of compounds, vehicle (DMSO) or 5 nM Mito-Q (mitoquinone) served as a positive control. On the next day cells were incubated for 2 h with 100 µM of tert-butyl peroxide (tBuOOH, Sigma), then the medium was replaced and the viability readout by CCK8 viability assay kit (Dojindo) was performed on the following day. The cell viability was expressed as normalized Z score and compared to tBuOOH-treated cells with nonparametric Kruskal-Wallis test with Dunn's multiple comparisons correction.
32 “Front runners” and 7 compounds from short list were tested on iPSC-derived neurons from three control lines in ROS-mediated assay to evaluate a neuroprotective potential of selected compounds. Three independent experiments were performed for CTR4 and CTR8, FIG. 20 (A, C), while two independent experiments were performed for CTR7, FIG. 20 (B).

[4] = system: murine cortical neurons (14 DIV); test: NMDA-mediated neuroprotective assay (CCK8 viability); type: cell-based, mouse; settings: 1 μM, 3 h pre-treatment, NMDA 8 μM 24 h, p<0.05
In short: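 Primary murine cortical neurons pre-treated with 1 μM compound for 3 or 24 h, then exposed to 8 μM NMDA for 24 h. Viability read by CCK-8 and expressed relative to NMDA-only control; vehicle 0.02% DMSO.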

[5] = control line CTR4, 1 μM, p<0.05
[6] = summary for all three control lines

| SMILES | fold induction at 1 µM (rat primary OPC cultures) | cumulative Z-scores of ATP production/viability [1] | myelin area ([2]; Early treatment DIV7 to DIV14) | protection from tBuOOH insult [3, 6] | neuroprotection of viability/metabolic activity against NMDA [4] | other results |
| --- | --- | --- | --- | --- | --- | --- |
| O=C(c1ccc(CN2CCOCC2)cc1)N1CCN(C2CC2)CC1 [Bavisant] | > 1.6 |  |  |  |  |  |
| CC(=O)N1CCN([C@H]2CCN(C(=O)N(C)[C@H](C)c3cc(C(F)(F)F)cc(C(F)(F)F)c3)[C@@H](c3ccc(F)cc3C)C2)CC1 [Casopitant] | > 1.6 | potential hits | identified | potential neuroprotective effect from tBuOOH-mediated insult |  | quantification of myelinated axons ([2]; Early treatment DIV7 to DIV14): identified; protection from tBuOOH insult [3, 5]: protected from tBuOOH insult; protection from tBuOOH insult ([3]; control line CTR7, p=0.07): trend to significance |
| CCOC(=O)[C@@H](N)CCC(=O)N[C@@H](CSCc1ccccc1)C(=O)N[C@@H](C(=O)OCC)c1ccccc1.Cl [Ezatiostat hydrochloride, Ezatiostat Hydrochloride] |  | potential hits |  | potential neuroprotective effect from tBuOOH-mediated insult | hit compounds |  |
| C[C@H](Nc1cc(-c2cnn(C)c2)cc(Nc2cnccn2)n1)c1ccc(F)cc1 [NS-018] |  |  | identified | potential neuroprotective effect from tBuOOH-mediated insult |  | quantification of myelinated axons ([2]; Early treatment DIV7 to DIV14): identified; protection from tBuOOH insult [3, 5]: protected from tBuOOH insult; protection from tBuOOH insult ([3]; control line CTR8, p<0.05): potential neuroprotective compound from tBuOOH-mediated insult |
| NCCCC[C@H](NC(=O)[C@@H](Cc1cc(Br)c(O)c(Br)c1)NC(=O)N1CCC(N2Cc3ccccc3NC2=O)CC1)C(=O)N1CCN(c2ccncc2)CC1 [Olcegepant] | > 1.6 |  |  | potential neuroprotective effect from tBuOOH-mediated insult |  |  |
| O=C(NOC[C@H](O)CO)c1ccc(F)c(F)c1Nc1ccc(I)cc1F [PD-0325901] | > 1.6 | potential hits |  |  |  |  |
| CC(=O)[C@H]1CC[C@H]2[C@@H]3CCC4=CC(=O)CC[C@]4(C)[C@H]3CC[C@]12C [Progesterone] |  |  | identified |  | hit compounds | myelin area ([2]; Late treatment DIV14-DIV21): identified |
| CC1(C)CCC(C)(C)c2cc(NC(=O)c3ccc(C(=O)O)cc3)ccc21 [Tamibarotene] | > 1.6 |  | identified |  | hit compounds | myelin area ([2]; Late treatment DIV14-DIV21): identified |
